Data: PubChem BioAssay (NCI)
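Interpolation was linear, between the two tested concentrations surrounding the appropriate level; five concentrations were tested over 48 hours in 96-well plates. The concentration for 50% growth inhibition is given as GI50. Definition used: TGI = concentration required for complete inhibition of growth.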

Legend:
Experiment in all cases: DTP human tumour cell line panel, 48 h
[1] = tested on: 786-0 renal
[2] = tested on: A498 renal
[3] = tested on: ACHN renal
[4] = tested on: BT-549 breast
[5] = tested on: CAKI-1 renal
[6] = tested on: CCRF-CEM leukemia
[7] = tested on: COLO 205 colon
[8] = tested on: DU-145 prostate
[9] = tested on: EKVX NSCLC
[10] = tested on: HCC-2998 colon
[11] = tested on: HCT-116 colon
[12] = tested on: HCT-15 colon
[13] = tested on: HL-60(TB) leukemia
[14] = tested on: HOP-62 NSCLC
[15] = tested on: HOP-92 NSCLC
[16] = tested on: HS 578T breast
[17] = tested on: HT29 colon
[18] = tested on: IGROV1 ovarian
[19] = tested on: KM12 colon
[20] = tested on: LOX IMVI melanoma
[21] = tested on: M14 melanoma
[22] = tested on: MALME-3M melanoma
[23] = tested on: MCF7 breast
[24] = tested on: MDA-MB-231 breast
[25] = tested on: MDA-MB-435
[26] = tested on: MOLT-4 leukemia
[27] = tested on: NCI-H23 lung
[28] = tested on: NCI-H460 lung
[29] = tested on: NCI/ADR-RES ovarian
[30] = tested on: OVCAR-3 ovarian
[31] = tested on: OVCAR-4 ovarian
[32] = tested on: OVCAR-5 ovarian
[33] = tested on: OVCAR-8 ovarian
[34] = tested on: PC-3 prostate
[35] = tested on: RPMI-8226 leukemia
[36] = tested on: RXF 393 renal
[37] = tested on: SF-268 CNS
[38] = tested on: SF-295 CNS
[39] = tested on: SF-539 CNS
[40] = tested on: SK-MEL-2 melanoma
[41] = tested on: SK-MEL-28 melanoma
[42] = tested on: SK-MEL-5 melanoma
[43] = tested on: SK-OV-3 ovarian
[44] = tested on: SN12C renal
[45] = tested on: SNB-19 CNS
[46] = tested on: SNB-75 CNS
[47] = tested on: SR leukemia
[48] = tested on: SW-620 colon
[49] = tested on: T-47D breast
[50] = tested on: TK-10 renal
[51] = tested on: U251 CNS
[52] = tested on: UACC-257 melanoma
[53] = tested on: UACC-62 melanoma
[54] = tested on: UO-31 renal
[55] = tested on: A549 NSCLC
[56] = tested on: K-562 leukemia
[57] = tested on: NCI-H226 lung

CCN1CCN(CC(=O)N2c3cccc4cccc(c34)N(C(=O)CN3CCN(CC)CC3)C2c2cn(-c3ccccc3)nc2-c2cccc([N+](=O)[O-])c2)CC1
GI50 [1]: 1.66 µM | TGI [1]: 3.17 µM | GI50 [2]: 0.49 µM | TGI [2]: 2.11 µM | GI50 [3]: 1.64 µM | TGI [3]: 3.08 µM | GI50 [4]: 1.67 µM | TGI [4]: 3.24 µM | GI50 [5]: 1.4 µM | TGI [5]: 2.9 µM | GI50 [6]: 1.15 µM | TGI [6]: 3.51 µM | GI50 [7]: 1.72 µM | TGI [7]: 3.39 µM | GI50 [8]: 1.96 µM | TGI [8]: 4.03 µM | GI50 [9]: 1.79 µM | TGI [9]: 3.79 µM | GI50 [10]: 1.83 µM | TGI [10]: 3.43 µM | GI50 [11]: 1.27 µM | TGI [11]: 2.83 µM | GI50 [12]: 1.46 µM | TGI [12]: 2.98 µM | GI50 [13]: 1.93 µM | TGI [13]: 3.85 µM | GI50 [14]: 1.63 µM | TGI [14]: 3.28 µM | GI50 [15]: 0.671 µM | TGI [15]: 2.49 µM | GI50 [16]: 1.81 µM | TGI [16]: 4.17 µM | GI50 [17]: 1.74 µM | TGI [17]: 3.84 µM | GI50 [18]: 1.62 µM | TGI [18]: 3.28 µM | GI50 [19]: 1.72 µM | TGI [19]: 3.28 µM | GI50 [20]: 1.62 µM | TGI [20]: 3.11 µM | GI50 [21]: 1.69 µM | TGI [21]: 3.46 µM | GI50 [22]: 1.63 µM | TGI [22]: 3.13 µM | GI50 [23]: 1.62 µM | TGI [23]: 3.24 µM | GI50 [24]: 1.42 µM | TGI [24]: 2.88 µM | GI50 [25]: 1.86 µM | TGI [25]: 3.54 µM | GI50 [26]: 1.69 µM | TGI [26]: 5.06 µM | GI50 [27]: 1.81 µM | TGI [27]: 3.59 µM | GI50 [28]: 1.51 µM | TGI [28]: 3.14 µM | GI50 [29]: 1.98 µM | TGI [29]: 4.16 µM | GI50 [30]: 1.63 µM | TGI [30]: 3.24 µM | GI50 [31]: 1.79 µM | TGI [31]: 3.71 µM | GI50 [32]: 1.8 µM | TGI [32]: 3.45 µM | GI50 [33]: 2.06 µM | TGI [33]: 5.01 µM | GI50 [34]: 1.48 µM | TGI [34]: 3.14 µM | GI50 [35]: 1.59 µM | TGI [35]: 3.94 µM | GI50 [36]: 1.62 µM | TGI [36]: 3.09 µM | GI50 [37]: 1.67 µM | TGI [37]: 3.47 µM | GI50 [38]: 1.84 µM | TGI [38]: 3.44 µM | GI50 [39]: 1.56 µM | TGI [39]: 2.94 µM | GI50 [40]: 1.84 µM | TGI [40]: 3.58 µM | GI50 [41]: 1.75 µM | TGI [41]: 3.2 µM | GI50 [42]: 1.75 µM | TGI [42]: 3.21 µM | GI50 [43]: 1.9 µM | TGI [43]: 3.74 µM | GI50 [44]: 1.49 µM | TGI [44]: 3.01 µM | GI50 [45]: 1.66 µM | TGI [45]: 3.42 µM | GI50 [46]: 1.13 µM | TGI [46]: 2.48 µM | GI50 [47]: 0.267 µM | TGI [47]: 0.8 µM | GI50 [48]: 1.73 µM | TGI [48]: 3.41 µM | GI50 [49]: 1.66 µM | TGI [49]: 3.7 µM | GI50 [50]: 1.88 µM | TGI [50]: 3.69 µM | GI50 [51]: 1.53 µM | TGI [51]: 3.21 µM | GI50 [52]: 1.85 µM | TGI [52]: 3.68 µM | GI50 [53]: 1.73 µM | TGI [53]: 3.2 µM | GI50 [54]: 1.34 µM | TGI [54]: 2.73 µM

Cn1c(-c2cccc([N+](=O)[O-])c2)[n+](C)c2ccccc21
TGI [1]: > 100 µM | TGI [2]: > 100 µM | TGI [55]: > 100 µM | TGI [3]: > 100 µM | TGI [4]: > 100 µM | TGI [5]: > 100 µM | TGI [6]: > 100 µM | TGI [7]: > 100 µM | TGI [8]: > 100 µM | TGI [9]: > 100 µM | TGI [10]: > 100 µM | TGI [11]: > 100 µM | TGI [12]: > 100 µM | TGI [13]: > 100 µM | TGI [14]: > 100 µM | TGI [15]: > 100 µM | TGI [16]: > 100 µM | TGI [17]: > 100 µM | TGI [18]: > 100 µM | TGI [56]: > 100 µM | TGI [19]: > 100 µM | TGI [20]: > 100 µM | TGI [21]: > 100 µM | TGI [22]: > 100 µM | TGI [23]: > 100 µM | TGI [24]: > 100 µM | TGI [25]: > 100 µM | TGI [26]: > 100 µM | TGI [57]: > 100 µM | TGI [27]: > 100 µM | TGI [28]: > 100 µM | TGI [29]: > 100 µM | TGI [30]: > 100 µM | TGI [31]: > 100 µM | TGI [32]: > 100 µM | TGI [33]: > 100 µM | TGI [34]: > 100 µM | TGI [35]: > 100 µM | TGI [36]: > 100 µM | TGI [37]: > 100 µM | TGI [38]: > 100 µM | TGI [39]: > 100 µM | TGI [40]: > 100 µM | TGI [41]: > 100 µM | TGI [42]: > 100 µM | TGI [43]: > 100 µM | TGI [45]: > 100 µM | TGI [46]: > 100 µM | TGI [47]: > 100 µM | TGI [48]: > 100 µM | TGI [49]: > 100 µM | TGI [50]: > 100 µM | TGI [51]: > 100 µM | TGI [52]: > 100 µM | TGI [53]: > 100 µM | TGI [54]: > 100 µM
